Results from ChEMBL document CHEMBL4665849, “Synthesis and biological evaluation of imidazoline derivatives as potential CNS and CVS agents” (Bioorg Med Chem Lett, 2020).
Active and inactive are the calls of the source. The calls are words filed in the database; no cut-off is given here.

What was measured:
Mus musculus [1] = assay: Analgesic activity in mouse assessed as time duration at which maximum change in tail flick latency occurs at 10 mg/kg (reference value: 60 mins); type: functional
Mus musculus [2] = assay: Hypotensive activity in mouse assessed as decrease in delayed blood pressure at 2.5 mg/kg; type: functional
[3] = Toxicity in mouse; type: organism-based; conditions: in vivo, read-out: ALD50
Mus musculus [4] = assay: Antiaggressive activity in mouse assessed as reduction in foot shock induced fighting behavior by measuring fighting count at 10 mg/kg, ip (reference value: 6.6 to 24.3 counts); type: functional
Mus musculus [5] = assay: Modulation of cardiovascular activity in mouse assessed as potentiation of norepinephrine induced pressure response at 2.5 mg/kg; type: functional, organism-based
Mus musculus [6] = assay: Modulation of cardiovascular activity in mouse assessed as inhibition of carotid occlusion-induced pressure response at 2.5 mg/kg; type: functional, organism-based
Mus musculus [7] = assay: Hypotensive activity in mouse assessed as decrease in heart rate at 2.5 mg/kg; type: functional
Mus musculus [8] = assay: Analgesic activity in mouse assessed as maximum change in tail flick latency time at 10 mg/kg (reference value: 0.7 secs); type: functional
Mus musculus [9] = assay: Antidepressant activity in mouse assessed as total mean swimming time time at 5 mg/kg, ip (reference value: 2.08 to 3.12 min); type: functional
Mus musculus [10] = assay: Hypotensive activity in mouse assessed as decrease in immediate blood pressure at 2.5 mg/kg; type: functional
Mus musculus [11] = assay: Modulation of cardiovascular activity in mouse assessed as inhibition of norepinephrine induced pressure response at 2.5 mg/kg; type: functional, organism-based
Mus musculus [12] = assay: Antidepressant activity in mouse assessed as total mean swimming time at 15 mg/kg (reference value: 2.98 min); type: functional
Mus musculus [13] = organism: Mus musculus; conditions: dose 10.0 mg/kg
Description: Modulation of cardiovascular activity in mouse assessed as inhibition of norepinephrine induced pressure response at 10 mg/kg

Mus musculus [14] = organism: Mus musculus; conditions: dose 10.0 mg/kg; remark: listed apart in the source
Description: Modulation of cardiovascular activity in mouse assessed as inhibition of carotid occlusion-induced pressure response at 10 mg/kg

Compound | Time (Mus musculus [1]) [min] | Activity (Mus musculus [2]) | LD50 [3] [mg/kg] | Activity (Mus musculus [4]) [Counts] | Activity (Mus musculus [5]) | inhibition (Mus musculus [6]) | Activity (Mus musculus [7]) | Time (Mus musculus [8]) [s] | Time (Mus musculus [9]) [min] | Activity (Mus musculus [10]) | inhibition (Mus musculus [11]) | Time (Mus musculus [12]) [min] | inhibition (Mus musculus [13]) | inhibition (Mus musculus [14])
CC1=N/C(=C\c2ccc(N(C)C)cc2)C(=O)O1 | 60 | 15 mmHg | > 500 | 7.3 | Active | Active | inactive | 1.8 | 1.5 | inactive |  |  |  | 
O=C1/C(=C/c2ccoc2)N=C(CCN2CCOCC2)N1c1ccc(O)cc1 | 30 | 20 mmHg | > 1000 | 6.6 | Active | Active | 18 bpm | 5.2 | 1.3 | 35 mmHg |  |  |  | 
CC1=N/C(=C\c2ccccc2)C(=O)N1c1ccc(O)cc1 | 60 | 70 mmHg | > 200 | 8.6 |  | Active | 12 bpm | 6.4 | 2.74 | 15 mmHg | Active |  |  | 
CC1=N/C(=C\c2ccoc2)C(=O)N1c1ccc(O)cc1 | 60 | 20 mmHg | > 500 | 4.6 | inactive | inactive | 18 bpm | 1.3 | 2.52 | 20 mmHg | inactive |  |  | 
CC1=N/C(=C\c2ccoc2)C(=O)O1 | 15 | inactive | > 500 | 6 | inactive | inactive | inactive | 8.8 | 2.64 | inactive | inactive |  |  | 
CC1=N/C(=C\c2ccoc2)C(=O)N1c1ccc(OCC(O)CNc2ccc(Cl)cc2)cc1 (configuration not stated) | 30 | 20 mmHg | > 500 | 10.6 | inactive | inactive | 27 bpm | 6.9 | 2.83 | 25 mmHg | inactive |  |  | 
CC1=N/C(=C\c2ccc(N(C)C)cc2)C(=O)N1c1ccc(O)cc1 | 30 | 50 mmHg | > 500 | 1.6 | Active | Active | 27 bpm | 0.1 | 0.42 | 25 mmHg |  |  |  | 
CC1=N/C(=C\c2ccoc2)C(=O)N1c1ccc(OCC2CO2)cc1 (configuration not stated) | 60 | 20 mmHg | > 1000 | 5 | Active | Active | 6 bpm | 6.4 | 1.14 | 30 mmHg |  |  |  | 
CN(C)c1ccc(/C=C2\N=C(CCN3CCOCC3)N(c3ccc(O)cc3)C2=O)cc1 | 60 | 37 mmHg | > 500 | 4.5 | Active | Active | 30 bpm | 2.6 | 0.5 | 15 mmHg |  |  |  | 
CC1=N/C(=C\c2ccc(N(C)C)cc2)C(=O)N1c1ccc(OCC(O)CNc2ccc(Cl)cc2)cc1 (configuration not stated) | 30 | 30 mmHg | > 500 | 4.8 | Active | Active | 21 bpm | 0.9 | 0.84 | 15 mmHg |  |  |  | 
CN(C)CCCN1c2ccccc2CCc2ccccc21 [IMIPRAMINE] |  |  |  |  |  |  |  |  |  |  |  | 2.33 |  | 
CC1=N/C(=C\c2ccccc2)C(=O)O1 | 60 | 40 mmHg | > 500 | 6 | Active | Active | 36 bpm | 1.3 | 1.72 | 25 mmHg |  |  |  | 
CC1=N/C(=C\c2ccccc2)C(=O)N1c1ccc(OCC2CO2)cc1 (configuration not stated) | 60 | 45 mmHg | > 500 | 6.3 | Active | Active | 21 bpm | 8.5 | 1.68 | 25 mmHg |  |  |  | 
Clc1cccc(Cl)c1NC1=NCCN1 |  |  |  |  |  |  |  |  |  |  |  |  | Active | Active
CC1=N/C(=C\c2ccc(N(C)C)cc2)C(=O)N1c1ccc(OCC2CO2)cc1 (configuration not stated) | 30 | 28 mmHg | > 500 | 10.3 |  | Active | 24 bpm | 3.8 | 1.31 | 60 mmHg | Active |  |  | 
CC1=N/C(=C\c2ccccc2)C(=O)N1c1ccc(OCC(O)CNc2ccc(Cl)cc2)cc1 (configuration not stated) | 60 | 17 mmHg | > 200 | 11.3 | Active | Active | 6 bpm | 4.5 | 1.6 | 50 mmHg |  |  |  | 
O=C1/C(=C/c2ccccc2)N=C(CCN2CCOCC2)N1c1ccc(O)cc1 | 60 | 15 mmHg | > 500 | 21.6 | inactive | Active | 15 bpm | 4 | 0.84 | 35 mmHg | inactive |  |  | 
